Experimental findings from publication PMC12164691 (Molecular Pharmacology, 2021) are described below.

Experiment [1] addresses T1, TAS2R39 (Homo sapiens, UniProt P59534).
T1 sequence (P59534 1-338): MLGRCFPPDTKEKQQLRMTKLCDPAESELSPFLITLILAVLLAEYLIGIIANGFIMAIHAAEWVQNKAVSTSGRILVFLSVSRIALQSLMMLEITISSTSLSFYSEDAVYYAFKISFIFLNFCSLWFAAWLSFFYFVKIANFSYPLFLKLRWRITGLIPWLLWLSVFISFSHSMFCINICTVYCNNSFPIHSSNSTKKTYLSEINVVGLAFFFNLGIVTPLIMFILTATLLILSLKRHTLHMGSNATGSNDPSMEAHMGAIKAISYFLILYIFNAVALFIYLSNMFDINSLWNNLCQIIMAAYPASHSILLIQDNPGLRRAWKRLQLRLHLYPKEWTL
Put plainly: Calcium mobilization in HEK293 cells expressing TAS2R39 and Gα16-gust44; antagonism of […] TAF (also of […] denatonium, IC50 […]). Format: cell-based. In general terms: A change in cytosolic calcium serves as a functional read-out for many receptors and channels.

The target of a further experiment is TAS2R8 (Homo sapiens, UniProt Q9NYW2).
Sequence of TAS2R8 (Q9NYW2 whole entry): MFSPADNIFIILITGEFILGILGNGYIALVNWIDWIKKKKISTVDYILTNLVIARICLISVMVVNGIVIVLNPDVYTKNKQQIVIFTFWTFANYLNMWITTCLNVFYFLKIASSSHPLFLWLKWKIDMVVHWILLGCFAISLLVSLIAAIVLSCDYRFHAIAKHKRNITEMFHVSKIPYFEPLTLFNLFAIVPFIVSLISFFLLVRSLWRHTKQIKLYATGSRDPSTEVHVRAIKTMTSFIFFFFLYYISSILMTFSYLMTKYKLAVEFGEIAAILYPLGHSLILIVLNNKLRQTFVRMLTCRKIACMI
Experiment [2] deals with T1, TAS2R39.
For another experiment, the target named is TAS2R14 (Homo sapiens, UniProt Q9NYV8).
Sequence of TAS2R14 (Q9NYV8 whole entry): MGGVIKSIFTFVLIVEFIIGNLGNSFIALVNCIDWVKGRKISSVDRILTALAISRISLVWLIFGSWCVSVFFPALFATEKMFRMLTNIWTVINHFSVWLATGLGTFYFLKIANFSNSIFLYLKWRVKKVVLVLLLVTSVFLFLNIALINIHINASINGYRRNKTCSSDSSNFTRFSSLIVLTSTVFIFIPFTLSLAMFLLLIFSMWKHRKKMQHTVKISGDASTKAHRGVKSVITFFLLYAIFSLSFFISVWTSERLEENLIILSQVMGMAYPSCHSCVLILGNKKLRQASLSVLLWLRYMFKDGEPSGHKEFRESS

For orientation: IC50 means the point on the concentration scale where inhibition reaches its midpoint.

For the molecule `Cc1ccc2oc(-c3ccccc3)cc(=O)c2c1` [6-MF, 6-methylflavone], on TAS2R39 [1], the IC50 is 22 µM.
Regarding `CC(C)OC(=O)[C@H](C)N[P@](=O)(CO[C@H](C)Cn1cnc2c(N)ncnc21)Oc1ccccc1` [TAF, tenofovir alafenamide], the “Calcium mobilization in HEK293 cells expressing TAS2R8 and Gα16-gust44; concentr” value at TAS2R8 is “cells expressing TAS2R8 and TAS2R14 showed small but significant responses to TAF”. The “Calcium mobilization in HEK293 cells expressing TAS2R39 and Gα16-gust44; concent” value at TAS2R39 [2] is “TAF activates TAS2R1, TAS2R8, TAS2R14, and TAS2R39 concentration-dependently”. On TAS2R14, the “Calcium mobilization in HEK293 cells expressing TAS2R14 and Gα16-gust44; concent” value was “cells expressing TAS2R8 and TAS2R14 showed small but significant responses to TAF”.
